Where a name gives a salt, the structure may show the parent alone.
How the values were obtained:
Assay type in all cases: physicochemical
[1] = Chemical purity after standing at 80° C. (HPLC; lactam-based related substances and main compound); details: for Increase in related substances: After 20 hours at 80° C., peak area of lactam-based related substances relative to main compound (HPLC); for Residual amount of main compound: After 21 days at 80° C., HPLC
Experimental: (§1) Each of the salts (dibesylate salt, dihydrochloride salt, sodium salt, potassium salt) prepared in the above examples was left to stand at 80° C. for 20 hours, and then an amount of change in related substances was measured. In addition, each of the salts was left to stand at 80° C. for 21 days, and then a residual amount of the main compound (compound of Formula 1) was measured. For measurement of the related substances and the main compound, samples were taken before and after exposure to 80° C., dissolved in a diluted solution at a concentration of 1 mg/mL, and then subjected to high-performance liquid chromatography (HPLC). From the resulting data, an increase in related substances was calculated by measuring a peak area of lactam-based related substances relative to a peak area of the main compound. In addition, for comparison, the same test was also carried out for the free base of the compound of Formula 1.

[2] = Evaluation of stability of crystal form (PXRD after drying in vacuo at 50° C.); details: after being dried in vacuo at 50° C.
Experimental: The solid product (crystalline form A) obtained in Example 1 was subjected to powder X-ray diffraction (PXRD). The results are shown in FIG. 1 and Table 8 below. • Instrument: Maker Bruker AXS, D8 FOCUS • Conditions: 40 kV, 30 mA, 2θ/θ scan range of 3° to 50°
The solid product (crystalline form A) obtained in Example 1 was dried in vacuo at 50° C., and then subjected to powder X-ray diffraction as described above. The results are illustrated in FIG. 4.
On the other hand, using 1,4-dioxane as a solvent, a solid product (crystalline form B) was obtained in a similar manner as in Example 1, and subjected to powder X-ray diffraction as described above.

[3] = Hygroscopicity (weight increase after 1 week at 25° C. and 60% or 90% relative humidity); details: weight increase relative to the initial weight
Experimental: Each of the salts (dibesylate salt, dihydrochloride salt, dioxalate salt, sodium salt, potassium salt) prepared in the above examples was left to stand at 25° C. and 60% or 90% relative humidity for 1 week, and a hygroscopicity thereof was measured. Here, the hygroscopicity was measured as a percentage of weight increase, which was measured after the hygroscopicity test, relative to the initial weight.

[4] = Chemical purity after storage for 3 months at 40° C. and 75% relative humidity (HPLC)
Experimental: as §1
In addition, in a similar manner, the dibesylate salt prepared in the above example was stored for 3 months (at 40° C. and 75% relative humidity), and amounts of change in lactam-based related substances and main compound were measured.

[5] = Stability of drug product (oral capsule, 50° C. and 80% humidity for 3 weeks, HPLC); details: 50° C. and 80% relative humidity for 3 weeks
Experimental: Using each of the salts (dibesylate salt, dihydrochloride salt, sodium salt, potassium salt) prepared in the above examples, a drug product was prepared in the form of an oral capsule with the excipient composition as shown in Table 6 below. The drug product was left to stand at 50° C. and 80% humidity for 3 weeks, and then an amount of change in related substances was measured. For measurement of related substances, the contents were separated from the capsule, and then all of them were placed in a diluted solution so that the active ingredient was brought to a concentration of 1 mg/mL. Shaking was performed for 5 minutes. The supernatant was taken and filtered. The filtrate was taken and subjected to high-performance liquid chromatography (HPLC).
From the resulting data, percentages of a peak area of the main compound (active ingredient) and a peak area of the lactam-based related substances were measured. In addition, for comparison, the same test was also carried out for the free base of the compound of Formula 1.

[6] = Water solubility (distilled water at 25° C., HPLC); details: supersaturated solution
Experimental: The water solubility was obtained as follows. Each of the free base and the dibesylate salt was dissolved in distilled water at 25° C. to make it supersaturated. Then, the solution was taken and diluted 20-fold with a diluent for dissolution. Then, the resultant was subjected to high-performance liquid chromatography (HPLC). In the resulting data, the dissolved amount was calculated from a peak area of the main compound.

[7] = Physical state of the product as obtained (foam, moistening); details: observation in words
Excerpt: First, the compound of Formula 1 was not solidified, which posed great difficulty in controlling a residual solvent.

[8] = After 3 months at 40° C. and 75% relative humidity

Increase in related substances [1] [%] | Residual amount of main compound [1] [%] | Hygroscopicity ([3]; 60% RH) [wt %] | Hygroscopicity ([3]; 90% RH) [wt %] | Compound | also measured
0.0 | 99.6 | 0.06 | 0.9 | O=C(O)CCCN[C@@H](Cn1c(=O)c2c(n(Cc3c(F)cccc3C(F)(F)F)c1=O)COC21CCN(Cc2ccc(C(F)(F)F)o2)CC1)c1ccccc1 [Dibesylate salt] | Increase in related substances ([1]; listed as dibesylate salt): did not generate any related substances; Stability of crystal structure (PXRD) ([2]; listed as crystalline form A): maintained the same crystal structure as its initial one; Hygroscopicity ([3]; 90% RH, listed as dibesylate salt): very low hygroscopicity; Chemical purity: Related substances [4, 8]: 0.03%; Chemical purity: main compound (Dibesylate salt) [4, 8]: 99.6%; Chemical purity: Related substances ([4]; Initial): 0.02%; Chemical purity: main compound (Dibesylate salt) ([4]; Initial): 99.7%; Stability of drug product (in words) [5]: very good stability; Water solubility (25° C.) [6]: 25.77 mg/mL; Water solubility (25° C.) ([6]; listed as dibesylate salt): greatly improved water solubility
0.9 | 69.4 | 2.1 | 16 | O=C(O)CCCN[C@@H](Cn1c(=O)c2c(n(Cc3c(F)cccc3C(F)(F)F)c1=O)COC21CCN(Cc2ccc(C(F)(F)F)o2)CC1)c1ccccc1 [Dihydrochloride salt] | 
 |  | 3.5 | 19 | O=C(O)CCCN[C@@H](Cn1c(=O)c2c(n(Cc3c(F)cccc3C(F)(F)F)c1=O)COC21CCN(Cc2ccc(C(F)(F)F)o2)CC1)c1ccccc1 [Dioxalate salt] | 
79.0 | 1.4 |  |  | O=C(O)CCCN[C@@H](Cn1c(=O)c2c(n(Cc3c(F)cccc3C(F)(F)F)c1=O)COC21CCN(Cc2ccc(C(F)(F)F)o2)CC1)c1ccccc1 [Free base, (R)-4-((2-(1-(2-fluoro-6-(trifluoromethyl)benzyl)-2,4-dioxo-1′-((5-(trifluoromethyl)furan-2-yl)methyl)-1H-spiro[furo[3,4-d]pyrimidine-5,4′-piperidine]-3 (2H,4H,7H)-yl)-1-phenylethyl)amino)butanoic acid] | Increase in related substances ([1]; listed as free base): about 79%; Moistening of the product obtained in the form of a foam [7]: easily moistened and turned into a sticky oil form; Water solubility (25° C.) [6]: 0.19 mg/mL; Water solubility (25° C.) ([6]; listed as free base): low water solubility
0.4 | 72.6 | 9.2 | 38 | O=C(O)CCCN[C@@H](Cn1c(=O)c2c(n(Cc3c(F)cccc3C(F)(F)F)c1=O)COC21CCN(Cc2ccc(C(F)(F)F)o2)CC1)c1ccccc1 [Potassium salt] | 
0.6 | 77.0 | 8.7 | 35 | O=C(O)CCCN[C@@H](Cn1c(=O)c2c(n(Cc3c(F)cccc3C(F)(F)F)c1=O)COC21CCN(Cc2ccc(C(F)(F)F)o2)CC1)c1ccccc1 [Sodium salt] | 
 |  |  |  | O=C(O)CCCN[C@@H](Cn1c(=O)c2c(n(Cc3c(F)cccc3C(F)(F)F)c1=O)COC21CCN(Cc2ccc(C(F)(F)F)o2)CC1)c1ccccc1 [crystalline form B] | Stability of crystal structure (PXRD) [2]: did not maintain some of its initial crystal structure
 |  |  |  | O=C(O)CCCN[C@@H](Cn1c(=O)c2c(n(Cc3c(F)cccc3C(F)(F)F)c1=O)COC21CCN(Cc2ccc(C(F)(F)F)o2)CC1)c1ccccc1 [diphosphate salt, reference compound] | Moistening of the product obtained in the form of a foam [7]: easily moistened and turned into a sticky oil form
